Patent US7381705B2, “Inhibitors of hepatitis C virus” (The Administrators Of The Tulane Educational Fund, priority 2004, dated 2008)
Read-outs that look alike come from different tables or passages of the source. Ends that are not written are not given here. Peptide text beside a SMILES is read from it.

Key:
HIV-1 = conditions: AIDS patients, clinical trials; cited from earlier work
[1] = test system: HCV pseudotype (HIV core proteins, HCV E1 and E2 of strain H77); conditions: for Percent inhibition: 25 μM
[2] = HCV H77 1a E2 peptides at ~25 μM, Table 7, virus alone 448,123
[3] = HCV J4 1b E2 peptides at ~25 μM, Table 8, controls as in Table 7

Compound | HIV-1 load (HIV-1) | Percent inhibition [1] [%] | Luciferase units [1, 2] | Luciferase units [1, 3]
enfuvirtide | substantially reduce |  |  | 
HPEATYSRCGSGPWITPR [compound 29, HPEATYSRCGSGPWITPR] |  | 33.6 | 297,353 luciferase units (lumens) | 
CC[C@H](C)[C@H](NC(=O)[C@@H](N)Cc1c[nH]cn1)C(=O)N[C@@H](CC(N)=O)C(=O)N[C@@H](CCCNC(=N)N)C(=O)N[C@H](C(=O)N[C@@H](C)C(=O)N[C@@H](CC(C)C)C(=O)N[C@@H](CC(N)=O)C(=O)N[C@@H](CS)C(=O)N[C@@H](CC(N)=O)C(=O)N[C@@H](CC(=O)O)C(=O)N[C@@H](CO)C(=O)N[C@@H](CC(C)C)C(=O)N[C@@H](CCC(N)=O)C(=O)N[C@H](C(=O)NCC(=O)N[C@@H](Cc1ccccc1)C(=O)N[C@@H](Cc1ccccc1)C(=O)O)[C@@H](C)O)[C@@H](C)O [compound 84, HINRTALNCNDSLQTGFF] |  | 12.5 |  | 392,023 luciferase units (lumens)
CSCC[C@H](NC(=O)[C@H](Cc1c[nH]c2ccccc12)NC(=O)[C@@H](NC(=O)[C@H](CS)NC(=O)CNC(=O)[C@H](Cc1ccccc1)NC(=O)[C@H](Cc1c[nH]c2ccccc12)NC(=O)[C@H](CC(N)=O)NC(=O)CNC(=O)[C@H](CCC(N)=O)NC(=O)[C@@H]1CCCN1C(=O)[C@@H]1CCCN1C(=O)[C@H](CCCNC(=N)N)NC(=O)[C@@H](NC(=O)[C@H](CC(N)=O)NC(=O)[C@@H](N)CC(N)=O)[C@@H](C)O)[C@@H](C)O)C(=O)N[C@@H](CC(N)=O)C(=O)N[C@@H](CO)C(=O)O [compound 99, NNTRPPQGNWFGCTWMNS] |  | 75.2 |  | 111,043 luciferase units (lumens)
CC(C)[C@H](NC(=O)[C@@H](NC(=O)[C@@H]1CCCN1C(=O)[C@H](CO)NC(=O)[C@@H]1CCCN1C(=O)[C@@H](NC(=O)[C@H](Cc1ccccc1)NC(=O)[C@H](CS)NC(=O)[C@H](Cc1ccc(O)cc1)NC(=O)[C@@H](NC(=O)[C@@H]1CCCN1C(=O)CNC(=O)[C@H](CS)NC(=O)[C@@H](NC(=O)[C@H](CO)NC(=O)[C@H](CCCCN)NC(=O)[C@H](C)NC(=O)[C@@H]1CCCN1)C(C)C)C(C)C)[C@@H](C)O)C(C)C)C(=O)O [compound 17, PAKSVCGPVYCFTPSPVV] (H-PAKSVCGPVYCFTPSPVV-OH; N-terminus and C-terminus assumed) |  | 43.2 | 254,516 luciferase units (lumens) | 
TGFFAALFYAHKFNSSGC [compound 51, TGFFAALFYAHKFNSSGC] |  | 47.1 |  | 237,086 luciferase units (lumens)
TTLPALSTGLIHLHQNIV [compound 117, TTLPALSTGLIHLHQNIV] |  | 19.8 |  | 359,236 luciferase units (lumens)
NCNESLNTGWLAGLFYQH [compound 8, NCNESLNTGWLAGLFYQH] |  | 74.6 | 113,650 luciferase units (lumens) | 
CC[C@H](C)[C@H](NC(=O)CNC(=O)[C@H](CS)NC(=O)[C@@H]1CCCN1C(=O)[C@H](CCCNC(=N)N)NC(=O)[C@@H]1CCCN1)C(=O)N[C@H](C(=O)N1CCC[C@H]1C(=O)N[C@@H](C)C(=O)N[C@@H](CCCCN)C(=O)N[C@@H](CO)C(=O)N[C@H](C(=O)N[C@@H](CS)C(=O)NCC(=O)N1CCC[C@H]1C(=O)N[C@H](C(=O)N[C@@H](Cc1ccc(O)cc1)C(=O)N[C@@H](CS)C(=O)O)C(C)C)C(C)C)C(C)C [compound 16, PRPCGIVPAKSVCGPVYC] (H-PRPCGIVPAKSVCGPVYC-OH; N-terminus and C-terminus assumed) |  | 10.0 | 403,430 luciferase units (lumens) | 
SPVVVGTTDRSGVPTYSW [compound 95, SPVVVGTTDRSGVPTYSW] |  | −20.1 |  | 538,110 luciferase units (lumens)
